US8071797B2 (priority 2008, dated 2011)

Molecular target: T1, HCV polymerase (NS5B570n-Con1) (Hepatitis C virus genotype 1b, UniProt Q9WMX2)
T1 construct: contains a 21 amino acid deletion at the C-terminus relative to the full-length HCV polymerase; 6-histidine (N); made in house; host or cells: E. coli BL21 (DE) pLysS
Assay: HCV NS5B RNA polymerase activity assay
Type: biochemical, HCV Con1 strain
Conditions: IC50 NS5B polymerase assay, Table I
Experimental: The enzymatic activity of HCV polymerase (NS5B570n-Con1) was measured as the incorporation of radiolabeled nucleotide monophosphates into acid insoluble RNA products. Unincorporated radiolabeled substrate was removed by filtration and scintillant was added to the washed and dried filter plate containing radiolabeled RNA product. The amount of RNA product generated by NS5B570-Con1 at the end of the reaction was directly proportional to the amount of light emitted by the scintillant.
The N-terminal 6-histidine tagged HCV polymerase, derived from HCV Con1 strain, genotype 1b (NS5B570n-Con1) contains a 21 amino acid deletion at the C-terminus relative to the full-length HCV polymerase and was purified from E. coli strain BL21 (DE) pLysS. The construct, containing the coding sequence of HCV NS5B Con1 (GenBank accession number AJ242654) was inserted into the plasmid construct pETI 7b, downstream of a T7 promoter expression cassette and transformed into E. coli. A single colony was grown overnight as a starter culture and later used inoculate 10 L of LB media supplemented with 100 μg/mL ampicillin at 37° C. Protein expression was induced by the addition of 0.25 mM isopropyl-β-D-thiogalactopyranoside (IPTG) when optical density at […] of the culture was between 0.6 and 0.8 and cells were harvested after 16 to 18 h at 30° C. NS5B570n-Con1 was purified to homogeneity using a three-step protocol including subsequent column chromatography on Ni-NTA, SP-Sepharose HP and Superdex 75 resins.
Each 50 μl enzymatic reaction contained 20 nM RNA template derived from the complementary sequence of the Internal Ribosome Entry Site (cIRES), 20 nM NS5B570n-Con1 enzyme, 0.5 μCi of tritiated UTP (Perkin Elmer catalog no. TRK-412; specific activity: 30 to 60 Ci/mmol; stock solution concentration from 7.5×10^-5 M to 20.6×10^-6 M), 1 μM each ATP, CTP, and GTP, 40 mM Tris-HCl pH 8.0, 40 mM NaCl, 4 mM DTT (dithiothreitol), 4 mM MgCl2, and 5 μl of compound serial diluted in DMSO. Reaction mixtures were assembled in 96-well filter plates (cat #MADVN0B, Millipore Co.) and incubated for 2 h at 30° C. Reactions were stopped by addition of 10% final (v/v) trichloroacetic acid and incubated for 40 min at 4° C. Reactions were filtered, washed with 8 reaction volumes of 10% (v/v) trichloroacetic acetic acid, 4 reaction volumes of 70% (v/v) ethanol, air dried, and 25 μl of scintillant (Microscint 20, Perkin-Elmer) was added to each reaction well.
The amount of light emitted from the scintillant was converted to counts per minute (CPM) on a Topcount® plate reader (Perkin-Elmer, Energy Range: Low, Efficiency Mode Normal, Count Time: 1 min, Background Subtract: none, Cross talk reduction: Off).
Data was analyzed in Excel® (Microsoft®) and ActivityBase® (idbsg). The reaction in the absence of enzyme was used to determine the background signal, which was subtracted from the enzymatic reactions. Positive control reactions were performed in the absence of compound, from which the background corrected activity was set as 100% polymerase activity. All data was expressed as a percentage of the positive control. The compound concentration at which the enzyme-catalyzed rate of RNA synthesis was reduced by 50% (IC50) was calculated by fitting
[formula] equation (t) to the data.where “Y” corresponds to the relative enzyme activity (in %), “% Min” is the residual relative activity at saturating compound concentration, “% Max” is the relative maximum enzymatic activity, “X” corresponds to the compound concentration, and “S” is the Hill coefficient (or slope).

Structure (SMILES)	IC50 [nM]
CNC(=O)c1c(-c2ccc(Oc3ccc(F)cc3)cc2)oc2cc(N(C3CCNCC3)S(C)(=O)=O)c(C3CC3)cc12 [Compound I-76]	376
CNC(=O)c1c(-c2ccc(Oc3cccc(Cl)c3)cc2)oc2cc(N(CCO)S(C)(=O)=O)c(OC)cc12 [Compound I-38]	50
CNC(=O)c1c(-c2ccc(Oc3ccc(F)cc3)cc2)oc2cc(N(CC3CCOC3)S(C)(=O)=O)c(C3CC3)cc12 (stereo not drawn) [Compound I-60]	115
CNC(=O)c1c(-c2ccc(Nc3cccc(F)c3)cc2)oc2cc(N(CCO)S(C)(=O)=O)c(OC(C)C)cc12 [Compound I-29]	94
CNC(=O)c1c(-c2ccc(Oc3cccc(Cl)c3)cc2)oc2cc(N(CCO)S(C)(=O)=O)c(OC(C)C)cc12 [Compound I-46]	51
CNC(=O)c1c(-c2ccc(Nc3ccc(F)c(Cl)c3)cc2)oc2cc(N(CCO)S(C)(=O)=O)c(OC)cc12 [Compound I-15]	82
CCc1cc2c(C(=O)NC)c(-c3ccc(Oc4ccc(F)cc4)cc3)oc2cc1N(CCO)S(C)(=O)=O [Compound I-51, 5-Ethyl-2-[4-(4-fluoro-phenoxy)-phenyl]-6-[(2-hydroxy-ethyl)-methanesulfonyl-amino]-benzofuran-3-carboxylic acid methylamide]	88
CNC(=O)c1c(-c2ccc(Nc3cc(F)cc(F)c3)cc2)oc2cc(N(CCO)S(C)(=O)=O)c(OC)cc12 [Compound I-16]	172
CNC(=O)c1c(-c2ccc(Nc3ccc(F)cc3)nc2)oc2cc(N(CCO)S(C)(=O)=O)c(OC)cc12 [Compound I-126, 2-[6-(4-Fluoro-phenylamino)-pyridin-3-yl]-6-[(2-hydroxy-ethyl)-methanesulfonyl-amino]-5-methoxy-benzofuran-3-carboxylic acid methylamide]	468
CNC(=O)c1c(-c2ccc(Nc3ccc(C#N)cc3)cc2)oc2cc(N(CCO)S(C)(=O)=O)c(OC)cc12 [Compound I-13]	1840
CNC(=O)c1c(-c2ccc(Nc3ccc(F)cc3)cc2)oc2cc(N(CCO)S(C)(=O)=O)c(C3CC3)cc12 [Compound I-62]	13
CNC(=O)c1c(-c2ccc(Oc3ccc(F)cc3)cc2)oc2cc(N(CCCSC)S(C)(=O)=O)c(C3CC3)cc12 [Compound I-113]	18
CNC(=O)c1c(-c2ccc(Oc3ccc(F)cc3)cc2)oc2cc(N(C)S(C)(=O)=O)c(Cl)cc12 [Compound I-66]	29
CNC(=O)c1c(-c2ccc(Oc3ccc(F)cc3)cc2)oc2cc(N(CC3COC3)S(C)(=O)=O)c(C3CC3)cc12 [Compound I-70, 5-Cyclopropyl-2-[4-(4-fluoro-phenoxy)-phenyl]-6-(methanesulfonyl-oxetan-3-ylmethyl-amino)-benzofuran-3-carboxylic acid methylamide]	13
CNC(=O)c1c(-c2ccc(Oc3ccc(C#N)cc3)cc2)oc2cc(N(CCO)S(C)(=O)=O)c(OC)cc12 [Compound I-48]	1070
CNC(=O)c1c(-c2ccc(Oc3ccc(F)cc3)cc2)oc2cc(N(CCS(N)(=O)=O)S(C)(=O)=O)c(C3CC3)cc12 [Compound I-119, 5-Cyclopropyl-2-[4-(4-fluoro-phenoxy)-phenyl]-6-[methanesulfonyl-(2-sulfamoyl-ethyl)-amino]-benzofuran-3-carboxylic acid methylamide]	14
CNC(=O)c1c(-c2ccc(Oc3ccc(F)c(F)c3)cc2)oc2cc(N(CCO)S(C)(=O)=O)c(OC)cc12 [Compound I-45]	48
CCN(c1cc2oc(-c3ccc(Oc4ccc(F)cc4)cc3)c(C(=O)NC)c2cc1OC)S(C)(=O)=O [Compound I-24]	130
CNC(=O)c1c(-c2ccc(Oc3ccc(F)cc3)cc2)oc2cc(N(CCCO)S(C)(=O)=O)c(C3CC3)cc12 [Compound I-106]	18
CNC(=O)c1c(-c2ccc(Oc3ccc(F)cc3)cc2)oc2cc(N(CCO)S(C)(=O)=O)c(OC)cc12 [Compound I-8]	57

Structure (SMILES)	IC50 [nM]
CNC(=O)c1c(-c2ccc(Oc3ccc(F)cc3)cc2)oc2cc(N(CCCS(C)(=O)=O)S(C)(=O)=O)c(C3CC3)cc12 [Compound I-114]	21
CNC(=O)c1c(-c2ccc(Oc3ccc(F)c(F)c3)cc2)oc2cc(N(CCO)S(C)(=O)=O)c(OC(C)C)cc12 [Compound I-50]	261
CNC(=O)c1c(-c2ccc(Oc3ccc(F)cc3)cc2)oc2cc(N(C3CCN(S(C)(=O)=O)C3)S(C)(=O)=O)c(C3CC3)cc12 (stereo not drawn) [Compound I-94, 5-cyclopropyl-2-[4-(4-fluoro-phenoxy)-phenyl]-6-[methanesulfonyl-(1-methanesulfonyl-pyrrolidin-3-yl)-amino]-benzofuran-3-carboxylic acid methylamide]	28
CNC(=O)c1c(-c2ccc(Nc3c(F)cccc3F)cc2)oc2cc(N(CCO)S(C)(=O)=O)c(OC)cc12 [Compound I-25]	123
CNC(=O)c1c(-c2ccc(Nc3ccccc3F)cc2)oc2cc(N(CCO)S(C)(=O)=O)c(OC)cc12 [Compound I-5]	34
CCN(c1cc2oc(-c3ccc(Nc4ccccc4F)cc3)c(C(=O)NC)c2cc1OC)S(C)(=O)=O [Compound I-18]	5
CNC(=O)c1c(-c2ccc(Nc3ccc(F)cc3)cc2)oc2cc(N(CCO)S(C)(=O)=O)c(OC)cc12 [Compound I-2]	100
CNC(=O)c1c(-c2ccc(Oc3ccc(F)cc3)cc2)oc2cc(N(CCC[S+](C)[O-])S(C)(=O)=O)c(C3CC3)cc12 (stereo not drawn) [Compound I-121]	5
CNC(=O)c1c(-c2ccc(Oc3ccc(F)cc3)cc2)oc2cc(C3CCCN3)c(OC)cc12 (stereo not drawn) [Compound I-111, 2-[4-(4-Fluoro-phenoxy)-phenyl]-5-methoxy-6-pyrrolidin-2-yl-benzofuran-3-carboxylic acid methylamide]	933
CNC(=O)c1c(-c2ccc(Oc3ccc(F)cc3)cc2)oc2cc(N([C@H]3CC[C@H](O)CC3)S(C)(=O)=O)c(C3CC3)cc12 [Compound I-100]	25
CNC(=O)c1c(-c2ccc(Oc3ccccc3F)cc2)oc2cc(N(C)S(C)(=O)=O)c(OC)cc12 [Compound I-36]	48
CNC(=O)c1c(-c2ccc(Oc3ccc(F)cc3)cc2)oc2cc(N(CC3COC(=O)N3)S(C)(=O)=O)c(C3CC3)cc12 (stereo not drawn) [Compound I-108]	26
CNC(=O)c1c(-c2ccc(Oc3ccc(F)cc3)cc2)oc2cc(N(CC(C)(C)O)S(C)(=O)=O)c(C3CC3)cc12 [Compound I-78]	55
CNC(=O)c1c(-c2ccc(Oc3ccc(F)cc3)cc2)oc2cc(N(CCNC(C)=O)S(C)(=O)=O)c(C3CC3)cc12 [Compound I-79]	68
CNC(=O)c1c(-c2ccc(Oc3ccc(F)cc3)cc2)oc2cc(N(CCCS(N)(=O)=O)S(C)(=O)=O)c(C3CC3)cc12 [Compound I-118]	7
CNC(=O)c1c(-c2ccc(Oc3ccc(Cl)cc3)cc2)oc2cc(N(CCO)S(C)(=O)=O)c(OC(C)C)cc12 [Compound I-27]	70
CNC(=O)c1c(-c2ccc(Nc3ccc(C)cc3)cc2)oc2cc(N(CCO)S(C)(=O)=O)c(OC)cc12 [Compound I-20]	92
CNC(=O)c1c(-c2ccc(Oc3ccccc3)cc2)oc2cc(-c3c(C)noc3C)c(C3CC3)cc12 [Compound I-85, 5-Cyclopropyl-6-(3,5-dimethyl-isoxazol-4-yl)-2-(4-phenoxy-phenyl)-benzofuran-3-carboxylic acid methylamide]	344
CNC(=O)c1c(-c2ccc(Oc3cccc(C#N)c3)cc2)oc2cc(N(CCO)S(C)(=O)=O)c(OC)cc12 [Compound I-47]	338
